Test results as given in patent US9586956B2, “Isoquinoline and naphthyridine derivatives” (Genentech, Inc., priority 2012, dated 2017).

Each compound was assayed against T1, purified human MAP4K4 kinase domain (Homo sapiens, UniProt O95819) (assay: MAP4K4 Inhibition Assay Protocol No. 2 (Z'-LYTE FRET)). Settings: Assay 2; 1 nM enzyme, 10 uM ATP, 60 min.
T1 construct: purified human MAP4K4 kinase domain
Format: biochemical
Excerpt: The kinase activity of purified human MAP4K4 kinase domain was monitored using Z'-LYTE™ technology from Invitrogen to determine inhibition constants (IC50) of small molecule inhibitors. The Z'-LYTE™ biochemical assay employs a fluorescence-based, coupled-enzyme format and is based on the differential sensitivity of phosphorylated and non-phosphorylated peptides to proteolytic cleavage. In the primary reaction, the kinase transfers the gamma-phosphate of ATP to a single tyrosine, serine or threonine residue in a synthetic FRET-peptide. In the secondary reaction, a site-specific protease recognizes and cleaves non-phosphorylated FRET-peptides. Phosphorylation of FRET-peptides suppresses cleavage by the Development Reagent. Cleavage disrupts FRET between the donor (i.e., coumarin) and acceptor (i.e., fluorescein) fluorophores on the FRET-peptide, whereas uncleaved, phosphorylated FRET-peptides maintain FRET. To determine inhibition constants (IC50), compounds were serially diluted in DMSO and added to 10 uL kinase reactions containing 1 nM purified MAP4K4 enzyme, 2 uM ser/thr7 Z'-LYTE™ substrate, 10 uMATP, 50 mM Hepes (pH 7.5), 10 mM MgCl2, 1 mM EGTA, 0.01% Brij-35, and 2% DMSO. Reactions were incubated at room temperature in Corning Black 384 well plates (Corning#3573) for 60 minutes and stopped by the addition of 5 uL of Z'-LYTE™ development reagent A and incubated at room temp for 60 minutes. The plate is then analyzed on Perkin Elmer Envision by FRET mode. The high ratio of coumarin/fluorescein represents 0% phosphorylation rate while low ratio of coumarin/fluorescein represents 100% phosphorylation rate. The following equations are used to determine extent of peptide phosphorylation or inhibition: […]

T1 sequence (O95819 25-289 limits assumed): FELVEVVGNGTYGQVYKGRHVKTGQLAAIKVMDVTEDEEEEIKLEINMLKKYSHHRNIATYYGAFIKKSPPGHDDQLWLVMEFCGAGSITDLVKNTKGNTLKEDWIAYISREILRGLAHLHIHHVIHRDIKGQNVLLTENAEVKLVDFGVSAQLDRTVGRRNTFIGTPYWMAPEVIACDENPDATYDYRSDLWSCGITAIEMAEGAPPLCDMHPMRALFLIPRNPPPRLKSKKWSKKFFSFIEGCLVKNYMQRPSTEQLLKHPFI

Row | SMILES | IC50
1 | CCOC(=O)c1cnc(N)c2nc(-c3cccc(OC(F)(F)F)c3)ccc12 [Example 139, ethyl 8-amino-2-[3-(trifluoro-methoxy)phenyl]-1,7-naphthyridine-5-carboxylate] | 0.00216 µM
2 | CN(C)S(=O)(=O)N1CC(NC(=O)c2cnc(N)c3nc(-c4cccc(F)c4)ccc23)C1 [Example 19, 8-amino-N-(1-(N,N-dimethylsulfamoyl)azetidin-3-yl)-2-(3-fluorophenyl)-1,7-naphthyridine-5-carboxamide] | 0.00385 µM
3 | CCOC(=O)c1cnc(N)c2nc(-c3cccc(OC)c3)ccc12 [Example 148, ethyl 8-amino-2-(3-methoxy-phenyl)-1,7-naphthyridine-5-carboxylate] | 0.00853 µM
4 | Nc1ncc(C(=O)NC2CN(C(=O)C3COC3)C2)c2ccc(-c3cccc(F)c3)nc12 [Example 17, 8-amino-2-(3-fluorophenyl)-N-(1-(oxetane-3-carbonyl)azetidin-3-yl)-1,7-naphthyridine-5-carboxamide] | 0.0195 µM
5 | Nc1ncc(CNS(=O)(=O)C2CC2)c2ccc(-c3cccc(F)c3)cc12 [Example 134, N-[[1-amino-7-(3-fluoro-phenyl)-4-isoquinolyl]methyl] cyclopropanesulfonamide] | 0.155 µM
6 | CNC(=O)N1CCC(NC(=O)c2cnc(N)c3cc(-c4cccc(F)c4)ccc23)C1 (stereo not drawn) [Example 135, 1-amino-7-(3-fluorophenyl)-N-[1-(methylcarbamoyl)pyrrolidin-3-yl] isoquinoline-4-carboxamide] | 0.162 µM
7 | Nc1ncc(-c2nnco2)c2ccc(-c3cccc(F)c3)nc12 [Example 28, 2-(3-fluorophenyl)-5-(1,3,4-oxadiazol-2-yl)-1,7-naphthyridin-8-amine] | 0.002 µM
8 | Nc1ncc(C(=O)NC2CN(C(=O)N3CCS(=O)(=O)CC3)C2)c2ccc(-c3cccc(F)c3)nc12 [Example 15, 8-amino-N-(1-(1,1-dioxidothiomorpholine-4-carbonyl)azetidin-3-yl)-2-(3-fluorophenyl)-1,7-naphthyridine-5-carboxamide] | 0.00455 µM
9 | CCC(=O)NC1CN(C(=O)c2cnc(N)c3nc(-c4cccc(F)c4)ccc23)C1 [Example 29, N-(1-(8-amino-2-(3-fluorophenyl)-1,7-naphthyridine-5-carbonyl)azetidin-3-yl)propionamide] | 0.0608 µM
10 | Nc1ncc(C(=O)NC2CN(C(=O)CN3CCOCC3)C2)c2ccc(-c3cccc(F)c3)nc12 [Example 20, 8-amino-2-(3-fluorophenyl)-N-(1-(2-morpholinoacetyl)azetidin-3-yl)-1,7-naphthyridine-5-carboxamide] | 0.0068 µM
11 | Nc1ncc(-c2cn(CCN3CCOCC3)cn2)c2ccc(-c3cccc(F)c3)nc12 [Example 43, 2-(3-fluorophenyl)-5-(1-(2-morpholinoethyl)-1H-imidazol-4-yl)-1,7-naphthyridin-8-amine] | 0.00248 µM
12 | CCOC(=O)c1cnc(N)c2nc(-c3cccc(OC(F)F)c3)ccc12 [Example 140, ethyl 8-amino-2-[3-(difluoro-methoxy)phenyl]-1,7-naphthyridine-5-carboxylate] | 0.00769 µM
13 | Nc1ncc(C(=O)NC2COC2)c2ccc(-c3cccc(F)c3)nc12 [Example 38, 8-amino-2-(3-fluorophenyl)-N-(oxetan-3-yl)-1,7-naphthyridine-5-carboxamide] | 0.00569 µM
14 | CC(O)C(=O)N1CC(NC(=O)c2cnc(N)c3nc(-c4cccc(F)c4)ccc23)C1 (stereo not drawn) [Example 16, 8-amino-2-(3-fluorophenyl)-N-(1-(2-hydroxypropanoyl)azetidin-3-yl)-1,7-naphthyridine-5-carboxamide] | 0.0045 µM
15 | Cn1cnc(-c2cnc(N)c3cc(-c4cccc(F)c4)ccc23)c1 [Example 10, 7-(3-fluorophenyl)-4-(1-methylimidazol-4-yl)isoquinolin-1-amine] | 0.0287 µM
16 | CC(=O)N1CC(NC(=O)c2cnc(N)c3nc(-c4cccc(F)c4)ccc23)C1 [Example 26, N-(1-acetylazetidin-3-yl)-8-amino-2-(3-fluorophenyl)-1,7-naphthyridine-5-carboxamide] | 0.00411 µM
17 | Nc1ncc(C(=O)NC2CN(S(N)(=O)=O)C2)c2ccc(-c3cccc(F)c3)nc12 [Example 21, 8-amino-2-(3-fluorophenyl)-N-(1-sulfamoylazetidin-3-yl)-1,7-naphthyridine-5-carboxamide] | 0.0018 µM
18 | CN(C(=O)c1cnc(N)c2nc(-c3cccc(F)c3)ccc12)C1CN(C(=O)C2CC2)C1 [Example 41, 8-amino-N-(1-(cyclopropanecarbonyl)azetidin-3-yl)-2-(3-fluorophenyl)-N-methyl-1,7-naphthyridine-5-carboxamide] | 1.2 µM

Row | SMILES | IC50
19 | Nc1ncc(CNC(=O)c2ccccc2)c2ccc(-c3cccc(F)c3)cc12 [Example 136, N-[[1-amino-7-(3-fluoro-phenyl)-4-isoquinolyl]methyl]benzamide] | 0.919 µM
20 | CC(C)CNC(=O)c1cnc(N)c2nc(-c3cccc(F)c3)ccc12 [Example 40, 8-amino-2-(3-fluorophenyl)-N-isobutyl-1,7-naphthyridine-5-carboxamide] | 0.00563 µM
21 | CS(=O)(=O)N1CC(NC(=O)c2cnc(N)c3nc(-c4cccc(F)c4)ccc23)C1 [Example 18, 8-amino-2-(3-fluorophenyl)-N-(1-(methylsulfonyl)azetidin-3-yl)-1,7-naphthyridine-5-carboxamide] | 0.0116 µM
22 | Nc1ncc(C(=O)NC2CCC2)c2ccc(-c3cccc(F)c3)nc12 [Example 33, 8-amino-N-cyclobutyl-2-(3-fluorophenyl)-1,7-naphthyridine-5-carboxamide] | 0.00165 µM
23 | CCOC(=O)c1cnc(N)c2nc(-c3cccc(C(=O)N(C)C)c3)ccc12 [Example 144, ethyl 8-amino-2-[3-(dimethyl-carbamoyl)phenyl]-1,7-naphthyridine-5-carboxylate] | 0.0031 µM
24 | CCOC(=O)c1cnc(N)c2nc(-c3ccc(Cl)cc3)ccc12 [Example 149, ethyl 8-amino-2-(4-chlorophenyl)-1,7-naphthyridine-5-carboxylate] | 0.0278 µM
25 | Nc1ncc(-c2ncn[nH]2)c2ccc(-c3cccc(F)c3)nc12 [Example 42, 2-(3-fluorophenyl)-5-(1H-1,2,4-triazol-5-yl)-1,7-naphthyridin-8-amine] | 0.00832 µM
26 | Nc1ncc(C(=O)N2CC(NC(=O)C3CC3)C2)c2ccc(-c3cccc(F)c3)nc12 [Example 30, N-(1-(8-amino-2-(3-fluorophenyl)-1,7-naphthyridine-5-carbonyl)azetidin-3-yl)cyclopropanecarboxamide] | 0.0139 µM
27 | Nc1ncc(C(=O)NC2CN(S(=O)(=O)C(F)(F)F)C2)c2ccc(-c3cccc(F)c3)nc12 [Example 23, 8-amino-2-(3-fluorophenyl)-N-(1-((trifluoromethyl)sulfonyl)azetidin-3-yl)-1,7-naphthyridine-5-Carboxamide] | 0.0285 µM
28 | CCOC(=O)c1cnc(N)c2nc(-c3cc(F)cc(F)c3)ccc12 [Example 145, ethyl 8-amino-2-(3,5-difluoro-phenyl)-1,7-naphthyridine-5-carboxylate] | 0.00184 µM
29 | CCOC(=O)c1cnc(N)c2nc(-c3ccc(F)cc3C)ccc12 [Example 153, ethyl 8-amino-2-(4-fluoro-2-methyl-phenyl)-1,7-naphthyridine-5-carboxylate] | 0.00652 µM
30 | CNC(=O)N1CC(NC(=O)c2cnc(N)c3nc(-c4cccc(F)c4)ccc23)C1 [Example 34, 8-amino-2-(3-fluorophenyl)-N-(1-(methylcarbamoyl)azetidin-3-yl)-1,7-naphthyridine-5-carboxamide] | 0.0016 µM
31 | Cn1ncnc1-c1cnc(N)c2cc(-c3cccc(F)c3)ccc12 [Example 12, 7-(3-fluorophenyl)-4-(2-methyl-1,2,4-triazol-3-yl)isoquinolin-1-amine] | 0.218 µM
32 | CCOC(=O)c1cnc(N)c2nc(-c3cccc(S(C)(=O)=O)c3)ccc12 [Example 143, ethyl 8-amino-2-(3-methyl-sulfonylphenyl)-1,7-naphthyridine-5-carboxylate] | 0.0636 µM
33 | Nc1ncc(C(=O)NC2CN(C(=O)C3CC3)C2)c2ccc(-c3cccc(F)c3)nc12 [Example 37, 8-amino-N-(1-(cyclopropanecarbonyl)azetidin-3-yl)-2-(3-fluorophenyl)-1,7-naphthyridine-5-carboxamide] | 0.00294 µM
34 | CC(=O)NC1CN(C(=O)c2cnc(N)c3nc(-c4cccc(F)c4)ccc23)C1 [Example 32, N-(1-(8-amino-2-(3-fluorophenyl)-1,7-naphthyridine-5-carbonyl)azetidin-3-yl)acetamide] | 0.0198 µM
35 | Nc1ncc(-c2cc(CO)ccn2)c2ccc(-c3cccc(F)c3)cc12 [Example 137, [2-[1-amino-7-(3-fluoro-phenyl)-4-isoquinolyl]-4-pyridyl]methanol] | 0.0106 µM
36 | CCOC(=O)c1cnc(N)c2nc(-c3ccc(Cl)cc3Cl)ccc12 [Example 154, ethyl 8-amino-2-(2,4-dichloro-phenyl)-1,7-naphthyridine-5-carboxylate] | 0.382 µM
